The values that follow come from PubChem BioAssay AID192 (DTP/NCI, 2004).

The assay has as its system BDF1 mice, B16 melanoma ip, median survival T/C. Kind of assay: NCI In Vivo Anticancer Drug Screen. Data for tumor model B16 Melanoma (intraperitoneal) in B6D2F1 (BDF1) mice. As to conditions: endpoint: median survival time, higher = longer survival. Put shortly:
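Survival or tumor size is measured after treatment of tumor-bearing mice and normalised to the vehicle-treated control group.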

Setting [1] is: dose: 100.0 mg/kg/injection, schedule: Q01DX009 (ip), vehicle: saline with Tween-80.
The mark [2] stands for this setting: dose: 200.0 mg/kg/injection, schedule: Q01DX009 (ip), vehicle: saline with Tween-80.
Where [3] appears, read: dose: 25.0 mg/kg/injection, schedule: Q01DX009 (ip), vehicle: saline with Tween-80.
Setting [4] is: dose: 50.0 mg/kg/injection, schedule: Q01DX009 (ip), vehicle: saline with Tween-80.

Toxic doses and inconclusive results are not listed. Numbered stars: 1 amine (or outer) side, 2 acyl side, 3 side chain; on linkers, the order of the positions; unused ones are H or OH. Bridge positions count the residues as written; N and C are the ends. Square brackets hold non-standard residues; d marks the D form. Peptide text beside a SMILES is read from it. I, II: the chains in the order shown. Actinocin(9to1) = Cc1c2oc3c(C)ccc(C(=O)[*:1])c3nc-2c(C(=O)[*:2])c(N)c1=O; NMeV = CN[CH](C(=O)O)C(C)C; Aze = O=C(O)[CH]1CCN1; Sar = CNCC(=O)O

As for `CC1OC(=O)C(C(C)C)NC(=O)C(C(C)C)OC(=O)C(C(C)C)NC(=O)C(C)OC(=O)C(C(C)C)NC(=O)C(C(C)C)OC(=O)C(C(C)C)NC(=O)C(C)OC(=O)C(C(C)C)NC(=O)C(C(C)C)OC(=O)C(C(C)C)NC1=O` (centres undefined), the T/C (dose: 0.04 mg/kg/injection, schedule: Q01DX009 (ip), vehicle: saline with Tween-80) was 101 % of control; the T/C (dose: 0.08 mg/kg/injection, schedule: Q01DX009 (ip), vehicle: saline with Tween-80) is 106 % of control; the T/C (dose: 0.16 mg/kg/injection, schedule: Q01DX009 (ip), vehicle: saline with Tween-80) is 117 % of control; the T/C (dose: 0.2 mg/kg/injection, schedule: Q01DX009 (ip), vehicle: DMSO) was 117 % of control; the T/C (dose: 0.31 mg/kg/injection, schedule: Q01DX009 (ip), vehicle: saline with Tween-80) is 152 % of control; the T/C (dose: 0.4 mg/kg/injection, schedule: Q01DX009 (ip), vehicle: DMSO) is 176 % of control. The T/C was 106 % of control (dose: 0.75 mg/kg/injection, schedule: Q01DX009 (ip), vehicle: Klucel (hydroxypropylcellulose) (HPC)); 101 % of control (dose: 0.75 mg/kg/injection, schedule: Q01DX009 (oral), vehicle: Klucel (hydroxypropylcellulose) (HPC)); 101 % of control (dose: 1.5 mg/kg/injection, schedule: Q01DX009 (ip), vehicle: Klucel (hydroxypropylcellulose) (HPC)); 104 % of control (dose: 1.5 mg/kg/injection, schedule: Q01DX009 (oral), vehicle: Klucel (hydroxypropylcellulose) (HPC)); 153 % of control (dose: 2.5 mg/kg/injection, schedule: Q01DX009 (ip), vehicle: saline with Tween-80); 105 % of control (dose: 3.0 mg/kg/injection, schedule: Q01DX009 (oral), vehicle: Klucel (hydroxypropylcellulose) (HPC)). The T/C was 183 % of control (dose: 5.0 mg/kg/injection, schedule: Q01DX009 (ip), vehicle: saline with Tween-80); 105 % of control (dose: 5.0 mg/kg/injection, schedule: Q01DX009 (oral), vehicle: saline with Tween-80); 165 % of control (dose: 6.0 mg/kg/injection, schedule: Q01DX009 (ip), vehicle: saline with Tween-80); 107 % of control (dose: 6.0 mg/kg/injection, schedule: Q01DX009 (oral), vehicle: Klucel (hydroxypropylcellulose) (HPC)); 171 % of control (dose: 10.0 mg/kg/injection, schedule: Q01DX009 (ip), vehicle: saline with Tween-80); 116 % of control (dose: 10.0 mg/kg/injection, schedule: Q01DX009 (oral), vehicle: saline with Tween-80). Also, the T/C is 100 % of control (dose: 12.0 mg/kg/injection, schedule: Q01DX009 (oral), vehicle: Klucel (hydroxypropylcellulose) (HPC)); 94 % of control (dose: 20.0 mg/kg/injection, schedule: Q01DX009 (ip), vehicle: saline with Tween-80); 116 % of control (dose: 20.0 mg/kg/injection, schedule: Q01DX009 (oral), vehicle: saline with Tween-80); 94 % of control (dose: 24.0 mg/kg/injection, schedule: Q01DX009 (oral), vehicle: Klucel (hydroxypropylcellulose) (HPC)); 109 % of control (dose: 40.0 mg/kg/injection, schedule: Q01DX009 (oral), vehicle: saline with Tween-80).

For the molecule `CC(=O)CC(=O)Nc1cccc(O)c1`, the T/C runs as follows: (dose: 100.0 mg/kg/injection, schedule: Q01DX009 (ip), vehicle: Klucel (hydroxypropylcellulose) (HPC)) 92 % of control; (dose: 200.0 mg/kg/injection, schedule: Q01DX009 (ip), vehicle: Klucel (hydroxypropylcellulose) (HPC)) 92 % of control; (dose: 400.0 mg/kg/injection, schedule: Q01DX009 (ip), vehicle: Klucel (hydroxypropylcellulose) (HPC)) 86 % of control.

In the case of `O=C(Nc1cc(C(F)(F)F)ccc1Cl)c1ccc(Cl)cc1Cl`, the T/C is, setting by setting: under setting [1], 88 % of control; under setting [2], 88 % of control.

For the molecule `Clc1ccc(CN2COc3c(ccc4cccnc34)C2)cc1Cl`, the T/C runs as follows: under setting [3], 106 % of control; under setting [4], 108 % of control; under setting [1], 107 % of control.

As for `CCCCCCCCC(=O)CCC`, the T/C runs as follows: (dose: 100.0 mg/kg/injection, schedule: Q04DX003 (ip), vehicle: Klucel (hydroxypropylcellulose) (HPC)) 88 % of control; (dose: 200.0 mg/kg/injection, schedule: Q04DX003 (ip), vehicle: Klucel (hydroxypropylcellulose) (HPC)) 90 % of control; (dose: 400.0 mg/kg/injection, schedule: Q04DX003 (ip), vehicle: Klucel (hydroxypropylcellulose) (HPC)) 94 % of control.

Consider `CN(C)/C=C(/C#N)C(=O)N1CCCC1`, for which the T/C (dose: 37.5 mg/kg/injection, schedule: Q04DX003 (ip), vehicle: saline) was 95 % of control; the T/C (dose: 75.0 mg/kg/injection, schedule: Q04DX003 (ip), vehicle: saline) was 88 % of control; the T/C (dose: 150.0 mg/kg/injection, schedule: Q04DX003 (ip), vehicle: saline) was 100 % of control.

Consider `O=[N+]([O-])c1ccc(NCCO)c([N+](=O)[O-])c1`, for which the T/C was 100 % of control under setting [4]; 100 % of control under setting [1]; 94 % of control (dose: 100.0 mg/kg/injection, schedule: Q04DX003 (ip), vehicle: saline with Tween-80); 92 % of control under setting [2]; 89 % of control (dose: 200.0 mg/kg/injection, schedule: Q04DX003 (ip), vehicle: saline with Tween-80).

Regarding `CC(N)C(=O)NC(CC(=O)O)C(=O)O` (centres undefined), the T/C runs as follows: (dose: 12.5 mg/kg/injection, schedule: Q01DX009 (ip), vehicle: saline) 99 % of control; (dose: 25.0 mg/kg/injection, schedule: Q01DX009 (ip), vehicle: saline) 93 % of control; (dose: 50.0 mg/kg/injection, schedule: Q01DX009 (ip), vehicle: saline) 98 % of control; (dose: 100.0 mg/kg/injection, schedule: Q01DX009 (ip), vehicle: saline) 93 % of control; (dose: 200.0 mg/kg/injection, schedule: Q01DX009 (ip), vehicle: saline) 98 % of control.

Regarding `CCN(CC)CCCC(C)Nc1c2ccc(Cl)cc2nc2cc(Cl)ccc12` (centres undefined), the T/C (dose: 12.5 mg/kg/injection, schedule: Q01DX009 (ip), vehicle: Klucel (hydroxypropylcellulose) (HPC)) is 106 % of control; the T/C (dose: 25.0 mg/kg/injection, schedule: Q01DX009 (ip), vehicle: Klucel (hydroxypropylcellulose) (HPC)) was 106 % of control; the T/C (dose: 50.0 mg/kg/injection, schedule: Q01DX009 (ip), vehicle: Klucel (hydroxypropylcellulose) (HPC)) was 122 % of control.

Consider `C=CCOCC(O)CN(CCC)CCC` (centres undefined), for which the T/C by setting is: (dose: 12.5 mg/kg/injection, schedule: Q01DX009 (ip), vehicle: saline with Tween-80) 114 % of control; under setting [3], 112 % of control; under setting [4], 114 % of control.

Turning to `CC[n+]1ccc(Nc2ccc(/C=C/c3ccc4cc(Nc5cc[n+](CC)cc5)ccc4[n+]3CC)cc2)cc1`, the T/C (dose: 2.5 mg/kg/injection, schedule: Q01DX009 (ip), vehicle: saline) is 117 % of control; the T/C (dose: 5.0 mg/kg/injection, schedule: Q01DX009 (ip), vehicle: saline) was 109 % of control; the T/C (dose: 10.0 mg/kg/injection, schedule: Q01DX009 (ip), vehicle: saline) was 86 % of control.

Take `CC(C(=O)O)C(=O)O.[NH-]CC[NH-].[Pt+2]`: the T/C reads like this: (dose: 3.12 mg/kg/injection, schedule: Q01DX009 (ip), vehicle: water) 150 % of control; (dose: 6.25 mg/kg/injection, schedule: Q01DX009 (ip), vehicle: water) 162 % of control; (dose: 12.5 mg/kg/injection, schedule: Q01DX009 (ip), vehicle: water) 179 % of control; (dose: 25.0 mg/kg/injection, schedule: Q01DX009 (ip), vehicle: water) 211 % of control.

`Cc1c2oc3c(C)ccc(C(=O)NC4C(=O)NC(C(C)C)C(=O)N5CCC5C(=O)N(C)CC(=O)N(C)C(C(C)C)C(=O)OC4C)c3nc-2c(C(=O)NC2C(=O)NC(C(C)C)C(=O)N3CCC3C(=O)N(C)CC(=O)N(C)C(C(C)C)C(=O)OC2C)c(N)c1=O` (centres undefined) (I: TV[Aze][Sar][NMeV] / II: TV[Aze][Sar][NMeV]; ester I:1-I:C, II:1-II:C; linker I:N-II:N via Actinocin(9to1); configuration not given here): the T/C by setting is: (dose: 0.3 mg/kg/injection, schedule: Q04DX003 (ip), vehicle: saline + alcohol) 169 % of control; (dose: 0.45 mg/kg/injection, schedule: Q04DX003 (ip), vehicle: saline + alcohol) 163 % of control; (dose: 100.0 micrograms/kg/injection, schedule: Q01DX009 (ip), vehicle: saline + alcohol) 159 % of control; (dose: 150.0 micrograms/kg/injection, schedule: Q01DX009 (ip), vehicle: saline + alcohol) 161 % of control.
